From patent US10112935B2, “Indazolyl thiadiazolamines and related compounds for inhibition of Rho-associated protein kinase and the treatment of disease” (Lycera Corporation, priority 2015, dated 2018)

Key:
[1] = target: GST-tagged human ROCK1 catalytic domain 1-477 (Homo sapiens (Human), UniProt Q13464); assay: Inhibition of Rho-associated protein kinase isoform 1 (LANCE Ultra ULight-CREBtide FRET kinase assay); type: biochemical; conditions: 30 μM was the highest concentration analyzed
Description: (§1) Exemplary compounds were tested for ability to inhibit Rho-associated protein kinase isoform 1 (ROCK1) and Rho-associated protein kinase isoform 2 (ROCK2). Assay procedures and results are described below.
(§2) Protein constructs were purified from a baculovirus expression system. The peptide substrate was fluorescent LANCE® Ultra ULight-CREBtide: […] (PerkinElmer, # TRF0107-D). […] After a 90 minute incubation at room temperature on a shaker table, the kinase reaction was stopped by addition of 10 mM EDTA, and phosphorylation of the substrate was detected by adding 1 nM LANCE® Ultra Europium-anti-phospho-CREB (ser133) antibody (PerkinElmer, # TRF0200-D) and incubating for 60 minutes on a shaker at room temperature. The flurorescence resonance energy transfer (FRET) signals were read and analyzed on an Envision™ 2103 Multilabel Reader (Perkin Elmer).

[2] = target: GST-tagged human ROCK2 catalytic domain 1-553 (Homo sapiens (Human), UniProt O75116); assay: Inhibition of Rho-associated protein kinase isoform 2 (LANCE Ultra ULight-CREBtide FRET kinase assay); type: biochemical; conditions: for IC50: 30 μM was the highest concentration analyzed; for Selectivity for ROCK2 over ROCK1 (IC50 ROCK1 / IC50 ROCK2): selectivity ROCK2 vs ROCK1
Sequence of GST-tagged human ROCK2 catalytic domain 1-553 (O75116 1-553): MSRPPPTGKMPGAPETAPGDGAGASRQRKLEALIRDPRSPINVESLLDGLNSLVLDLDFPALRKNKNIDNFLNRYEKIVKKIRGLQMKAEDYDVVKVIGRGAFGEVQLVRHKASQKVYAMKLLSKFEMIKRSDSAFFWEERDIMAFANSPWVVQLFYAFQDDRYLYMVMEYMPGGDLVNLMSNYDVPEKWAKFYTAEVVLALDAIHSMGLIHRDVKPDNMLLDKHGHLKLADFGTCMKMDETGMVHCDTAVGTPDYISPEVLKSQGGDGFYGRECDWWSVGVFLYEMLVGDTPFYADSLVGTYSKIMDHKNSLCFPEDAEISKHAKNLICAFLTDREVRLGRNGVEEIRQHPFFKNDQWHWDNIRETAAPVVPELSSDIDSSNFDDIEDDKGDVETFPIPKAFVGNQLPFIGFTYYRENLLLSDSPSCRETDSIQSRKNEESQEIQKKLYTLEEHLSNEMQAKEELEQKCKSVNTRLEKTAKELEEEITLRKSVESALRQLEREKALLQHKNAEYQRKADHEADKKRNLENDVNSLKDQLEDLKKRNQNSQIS
Description: as §1, §2

Sequence of GST-tagged human ROCK1 catalytic domain 1-477 (Q13464 1-477): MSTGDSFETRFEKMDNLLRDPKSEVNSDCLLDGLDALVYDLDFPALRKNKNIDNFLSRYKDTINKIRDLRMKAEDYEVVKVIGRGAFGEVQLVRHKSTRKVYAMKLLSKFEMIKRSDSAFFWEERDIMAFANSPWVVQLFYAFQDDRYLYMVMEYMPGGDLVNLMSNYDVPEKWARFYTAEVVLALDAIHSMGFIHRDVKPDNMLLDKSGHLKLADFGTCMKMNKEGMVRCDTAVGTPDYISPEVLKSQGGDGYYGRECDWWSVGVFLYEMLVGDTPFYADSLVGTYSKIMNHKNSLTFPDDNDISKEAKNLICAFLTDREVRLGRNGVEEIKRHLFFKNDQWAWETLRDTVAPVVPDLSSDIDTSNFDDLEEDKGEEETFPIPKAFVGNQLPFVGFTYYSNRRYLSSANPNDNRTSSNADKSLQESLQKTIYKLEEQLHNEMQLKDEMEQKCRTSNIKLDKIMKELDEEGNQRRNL

Row | Structure (SMILES) | IC50 [1] [µM] | IC50 [2] [µM] | Selectivity for ROCK2 over ROCK1 (IC50 ROCK1 / IC50 ROCK2) [2]
1 | NCCn1cc(C(=O)Nc2cc(-c3nnc(Nc4ccc5[nH]ncc5c4)s3)ccn2)cn1.O=C(O)C(F)(F)F [Example 35BV] | < 1 | < 1 | >50
2 | Nc1cncc(-c2nnc(Nc3ccc4[nH]ncc4c3)s2)n1 [Example A-13] | > 30 | 1 to 15 | >5
3 | Cn1cc(C(=O)Nc2cc(F)c(F)c(-c3nnc(Nc4ccc5[nH]ncc5c4)s3)c2)cn1 [Example 35BZ] | > 30 | < 1 | >100
4 | Clc1c(Nc2nnc(-c3cccn4cc(C5CCCN5)nc34)s2)ccc2[nH]ncc12 (stereo not drawn) [Example 50G] | < 1 | < 1 | <5
5 | O=C(Cc1ccccn1)Nc1cccc(-c2nnc(Nc3ccc4[nH]ncc4c3Cl)s2)c1 [Example 35BM] | > 30 | < 1 | >100
6 | O=C(Nc1cccc(-c2nnc(Nc3ccc4[nH]ncc4c3)s2)c1)c1cnn(CC(O)CO)c1 (stereo not drawn) [Example 35CG] | < 1 | < 1 | >5
7 | CC(C)(O)c1ccc(-c2cn3cccc(-c4nnc(Nc5ccc6[nH]ncc6c5Cl)s4)c3n2)cc1 [Example 50F] | < 1 | < 1 | >5
8 | Nc1cc(-c2nnc(Nc3ccc4[nH]ncc4c3)s2)ccn1.O=C(O)C(F)(F)F [Example 35CQ] | > 30 | < 1 | >100
9 | OC1(c2cccc(-c3nnc(Nc4ccc5[nH]ncc5c4Cl)s3)c2)COC1 [Example 35AJ] | > 30 | < 1 | >75
10 | CC(=O)Oc1cccc(-c2nnc(Nc3ccc4[nH]ncc4c3Cl)s2)c1 [Example 35AG] | > 30 | < 1 | >100
11 | Cn1ccc(C(=O)Nc2cccc(-c3nnc(Nc4ccc5[nH]ncc5c4)s3)c2)n1 [Example A-42] | < 1 | < 1 | >5
12 | CC(=O)Nc1cccc(-c2nnc(Nc3ccc4[nH]ncc4c3C)s2)c1 [Example 35J] | 1 to 15 | < 1 | >5
13 | CC1(C(=O)Nc2cccc(-c3nnc(Nc4ccc5[nH]ncc5c4Cl)s3)c2)CCCCC1 [Example 35L] | 1 to 15 | – | –
14 | O=C(Nc1cccc(-c2nnc(Nc3ccc4[nH]ncc4c3Cl)s2)c1)C1CCNCC1 [Example 35AC] | 1 to 15 | – | –
15 | CN1CC(C(=O)Nc2cccc(-c3nnc(Nc4ccc5[nH]ncc5c4Cl)s3)c2)C1 [Example 35X] | 1 to 15 | – | –

More lines, now with the values ahead:

Row | IC50 [1] [µM] | IC50 [2] [µM] | Selectivity for ROCK2 over ROCK1 (IC50 ROCK1 / IC50 ROCK2) [2] | Structure (SMILES)
16 | 1 to 15 | < 1 | >5 | CC1(C)CN=C(c2cccc(-c3nnc(Nc4ccc5[nH]ncc5c4Cl)s3)c2)O1 [Example 75Q]
17 | > 30 | – | >75 | CC(C)NC(=O)COc1cncc(-c2nnc(Nc3ccc4[nH]ncc4c3)s2)c1 [Example 75L]
18 | > 30 | < 1 | >100 | Cn1cccc(-c2nnc(Nc3ccc4[nH]ncc4c3Cl)s2)c1=O.O=C(O)C(F)(F)F [Example 56H]
19 | > 30 | < 1 | >50 | O=C1Cc2cccc(-c3nnc(Nc4ccc5[nH]ncc5c4Cl)s3)c2N1 [Example 56E]
20 | > 30 | > 30 | – | O=C(Nc1cccc(-c2nnc(Nc3ccc4[nH]ncc4c3F)s2)c1)c1c[nH]cn1 [Example 75N]
21 | – | 1 to 15 | – | Clc1c(Nc2nnc(-c3cccc4c3ncn4CCN3CCCC3)s2)ccc2[nH]ncc12 [Example 56A]
22 | – | 1 to 15 | – | CCOC(=O)N(c1nnc(-c2cccc(NC(=O)Cc3ccc(F)cc3)c2)s1)c1ccc2[nH]ncc2c1Cl [Example 54A]
